The target in this assay is T1, TYK2 (Homo sapiens, UniProt P29597).
T1 construct: Degradation of TYK2 in cells was quantitatively measured using Meso Scale Discovery (MSD) technology; endogenous in cells; host or cells: OCI-LY10
The assay can be described thus: TYK2 MSD degradation in OCI-LY10 cells. To be noted: TYK2 degradation in OCI-LY10 cells, 4 to 24 hours incubation; for DC50: read-out: TYK2 MSD OCI-LY10 Rel-DC50. The class given is cell-based. Summed up: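 Cellular TYK2 levels were measured by Meso Scale Discovery sandwich detection in RIPA lysates of OCI-LY10 cells exposed 4 to 24 hours at 37° C to nine 1:3 compound doses starting at 1 to 10 μM final; dose-response fitted by four-parameter regression.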

T1 sequence (P29597 whole entry): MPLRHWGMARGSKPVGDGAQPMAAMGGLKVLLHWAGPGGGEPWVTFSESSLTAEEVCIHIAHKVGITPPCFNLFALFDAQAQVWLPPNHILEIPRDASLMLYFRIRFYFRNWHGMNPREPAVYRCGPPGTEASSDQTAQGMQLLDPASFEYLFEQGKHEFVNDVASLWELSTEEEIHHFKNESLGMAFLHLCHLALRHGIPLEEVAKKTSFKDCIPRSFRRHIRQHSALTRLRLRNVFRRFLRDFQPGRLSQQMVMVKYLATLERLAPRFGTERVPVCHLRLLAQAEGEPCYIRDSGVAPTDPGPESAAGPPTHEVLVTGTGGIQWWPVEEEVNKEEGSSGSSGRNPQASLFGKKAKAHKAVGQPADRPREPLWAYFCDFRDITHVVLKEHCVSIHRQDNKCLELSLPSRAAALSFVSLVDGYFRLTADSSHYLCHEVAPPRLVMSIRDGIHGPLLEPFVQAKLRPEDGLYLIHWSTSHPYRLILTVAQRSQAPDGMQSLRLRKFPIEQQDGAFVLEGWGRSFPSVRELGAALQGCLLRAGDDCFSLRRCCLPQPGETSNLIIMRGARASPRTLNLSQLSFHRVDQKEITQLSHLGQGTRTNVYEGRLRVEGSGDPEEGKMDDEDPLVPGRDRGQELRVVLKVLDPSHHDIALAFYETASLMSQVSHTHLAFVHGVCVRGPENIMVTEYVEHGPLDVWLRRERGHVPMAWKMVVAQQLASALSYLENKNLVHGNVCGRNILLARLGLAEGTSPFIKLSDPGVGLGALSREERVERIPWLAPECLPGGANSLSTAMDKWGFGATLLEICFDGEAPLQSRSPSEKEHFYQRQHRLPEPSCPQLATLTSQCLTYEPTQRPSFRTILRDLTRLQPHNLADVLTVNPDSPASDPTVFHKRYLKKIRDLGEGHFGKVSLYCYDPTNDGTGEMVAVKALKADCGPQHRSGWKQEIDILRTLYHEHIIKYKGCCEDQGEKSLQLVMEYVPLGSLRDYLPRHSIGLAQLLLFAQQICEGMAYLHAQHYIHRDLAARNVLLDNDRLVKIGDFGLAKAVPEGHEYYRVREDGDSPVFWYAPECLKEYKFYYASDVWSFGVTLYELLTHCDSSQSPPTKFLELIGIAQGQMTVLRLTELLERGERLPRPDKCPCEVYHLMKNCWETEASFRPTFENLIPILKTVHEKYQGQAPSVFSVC

In general, DC50 refers to the concentration giving 50% degradation. Regarding `CNc1cc(N2CCc3c(CN4CCC(CN5CCC6(CCN(C(=O)c7cc(C)c(Cl)c(N8CCC(=O)NC8=O)c7)CC6)C(F)(F)C5)C(F)(F)C4)cccc32)nn2c(C(=O)N[C@@H]3CC[C@H]3OC)cnc12` (stereo partly shown) [I-1122], the “TYK2 MSD OCI-LY10 Dmax %” value is “A (A (>90%))” and the half-maximal degradation concentration (DC50) was under 1 nM.

For the molecule `CNc1cc(N2CCc3c(CN4CCC(CN5CCC6(CCN(C(=O)c7ccc(Cl)c(N8CCC(=O)NC8=O)c7)CC6)C(F)(F)C5)C(F)(F)C4)cccc32)nn2c(C(=O)N[C@@H]3CC[C@H]3OC)cnc12` (stereo partly shown) [I-1124], the “TYK2 MSD OCI-LY10 Dmax %” value is “A (A (>90%))” and the DC50 is under 1 nM.

Turning to `CNc1cc(N2CCc3c(CN4CCC(N5CCC6(CCN(C(=O)c7cc(N8CCC(=O)NC8=O)c(C)c(Cl)c7F)CC6)CC5)C(F)(F)C4)cccc32)nn2c(C(=O)N[C@@H]3CC[C@H]3OC)cnc12` (stereo partly shown) [I-1125], the “TYK2 MSD OCI-LY10 Dmax %” value was “A (A (>90%))” and the DC50 is under 1 nM.

For `CNc1cc(N2CCc3c([C@H](C)N4CC[C@H](N5CCC6(CCN(C(=O)c7cc(C)c(Cl)c(N8CCC(=O)NC8=O)c7)CC6)CC5)C(F)(F)C4)cccc32)nn2c(C(=O)N[C@@H]3CC[C@H]3OC)cnc12` [I-1127], the “TYK2 MSD OCI-LY10 Dmax %” value is given as “A (A (>90%))” and the DC50 is under 1 nM.

In the case of `CNc1cc(N2CCc3c([C@@H](C)N4CC[C@H](N5CCC6(CCN(C(=O)c7cc(C)c(Cl)c(N8CCC(=O)NC8=O)c7)CC6)CC5)C(F)(F)C4)cccc32)nn2c(C(=O)N[C@@H]3CC[C@H]3OC)cnc12` [I-1128], the “TYK2 MSD OCI-LY10 Dmax %” value is “A (A (>90%))” and the half-maximal degradation concentration (DC50) was under 1 nM.

For the molecule `COC1(c2cc(C)cc(-c3cn(CCC4CCN(C5CCN(c6cc(F)c(C7CCC(=O)NC7=O)c(F)c6)CC5)CC4)c4cnc(NC(C)=O)cc34)n2)CCOC1` (stereo not shown) [I-1130], the “TYK2 MSD OCI-LY10 Dmax %” value is “B (B (90 to >75%))” and the DC50 was under 10 nM.

As to `CNc1cc(N2CCc3c(-c4ncc(CN5CC6(CCN(C(=O)c7cc(N8CCC(=O)NC8=O)c(C)c(Cl)c7F)CC6(F)F)C5)cc4F)cccc32)nn2c(C(=O)N[C@@H]3CC[C@H]3OC)cnc12` [I-1133], the “TYK2 MSD OCI-LY10 Dmax %” value is “A (A (>90%))” and the DC50 was under 1 nM.

Consider `CNc1cc(N2CCc3c(-c4ncc(CN5CC6(CCN(C(=O)c7cc(N8CCC(=O)NC8=O)c(OC)cc7F)CC6(F)F)C5)cc4F)cccc32)nn2c(C(=O)N[C@@H]3CC[C@H]3OC)cnc12` [I-1134], for which the “TYK2 MSD OCI-LY10 Dmax %” value is recorded as “A (A (>90%))” and the DC50 was under 1 nM.

Take `CNc1cc(N2CCc3c(-c4ncc(CN5CC6(CCN(C(=O)c7cc(N8CCC(=O)NC8=O)c(OC)cc7C)CC6(F)F)C5)cc4F)cccc32)nn2c(C(=O)N[C@@H]3CC[C@H]3OC)cnc12` [I-1135]: the “TYK2 MSD OCI-LY10 Dmax %” value is “A (A (>90%))” and the DC50 was under 1 nM.

On to `CNc1cc(N2CCc3c(-c4ncc(CN5CC6(CCN(C(=O)c7cc(OC)c(C)c(N8CCC(=O)NC8=O)c7)CC6(F)F)C5)cc4F)cccc32)nn2c(C(=O)N[C@@H]3CC[C@H]3OC)cnc12` [I-1137], for which the “TYK2 MSD OCI-LY10 Dmax %” value was “A (A (>90%))” and the DC50 was under 1 nM.

`CNc1cc(N2CCc3c(-c4ncc(CN5CC6(CCN(C(=O)c7cc(C)c(OC)c(N8CCC(=O)NC8=O)c7)CC6(F)F)C5)cc4F)cccc32)nn2c(C(=O)N[C@@H]3CC[C@H]3OC)cnc12` [I-1138]: the “TYK2 MSD OCI-LY10 Dmax %” value was “B (B (90 to >75%))” and the DC50 is under 1 nM.

As for `CNc1cc(N2CCc3c(-c4ncc(C(=O)N5CC6(CCN(C(=O)c7cc(C)c(Cl)c(N8CCC(=O)NC8=O)c7)CC6(F)F)C5)cc4F)cccc32)nn2c(C(=O)N[C@@H]3CC[C@H]3OC)cnc12` [I-1139], the “TYK2 MSD OCI-LY10 Dmax %” value was “A (A (>90%))” and the DC50 was under 1 nM.

For `CNc1cc(N2CCc3c(-c4ncc(C(=O)N5CC6(CCN(C(=O)c7cc(C)c(Cl)c(N8CCC(=O)NC8=O)c7)CC6)C5)cc4F)cccc32)nn2c(C(=O)N[C@@H]3CC[C@H]3OC)cnc12` [I-1140], the “TYK2 MSD OCI-LY10 Dmax %” value is on record as “A (A (>90%))” and the DC50 is under 1 nM.

For the molecule `CNc1cc(N2CCc3c(CN4CC[C@@H](N5CCC6(CC5)CN(C(=O)c5cc(Cl)c(C)c(N7CCC(=O)NC7=O)c5)C6)C(F)(F)C4)cccc32)nn2c(C(=O)N[C@@H]3CC[C@H]3OC)cnc12` [I-1141], the “TYK2 MSD OCI-LY10 Dmax %” value is recorded as “A (A (>90%))” and the DC50 is under 1 nM.

With `CNc1cc(N2CCc3c(CN4CC[C@H](N5CCC6(CC5)CN(C(=O)c5cc(Cl)c(C)c(N7CCC(=O)NC7=O)c5)C6)C(F)(F)C4)cccc32)nn2c(C(=O)N[C@@H]3CC[C@H]3OC)cnc12` [I-1142], the “TYK2 MSD OCI-LY10 Dmax %” value was “A (A (>90%))” and the DC50 is under 1 nM.

In the case of `CNc1cc(N2CCc3c(-c4ncc([C@H](C)N5CC6(CCN(C(=O)c7cc(C)c(Cl)c(N8CCC(=O)NC8=O)c7)CC6(F)F)C5)cc4F)cccc32)nn2c(C(=O)N[C@@H]3CC[C@H]3OC)cnc12` [I-1143], the “TYK2 MSD OCI-LY10 Dmax %” value is “A (A (>90%))” and the DC50 is under 1 nM.

Consider `CNc1cc(N2CCc3c(-c4ncc([C@@H](C)N5CC6(CCN(C(=O)c7cc(C)c(Cl)c(N8CCC(=O)NC8=O)c7)CC6(F)F)C5)cc4F)cccc32)nn2c(C(=O)N[C@@H]3CC[C@H]3OC)cnc12` [I-1144], for which the “TYK2 MSD OCI-LY10 Dmax %” value is “B (B (90 to >75%))” and the DC50 was under 1 nM.

Consider `CNc1cc(N2CCc3c(CN4CC[C@@H](N5CCC6(CCN(C(=O)c7cc(Cl)c(Cl)c(N8CCC(=O)NC8=O)c7)CC6)CC5)C(F)(F)C4)cccc32)nn2c(C(=O)N[C@@H]3CC[C@H]3OC)cnc12` [I-1145], for which the “TYK2 MSD OCI-LY10 Dmax %” value is reported as “A (A (>90%))” and the DC50 is under 1 nM.

Take `CNc1cc(N2CCc3c(CN4CC[C@H](N5CCC6(CCN(C(=O)c7cc(Cl)c(Cl)c(N8CCC(=O)NC8=O)c7)CC6)CC5)C(F)(F)C4)cccc32)nn2c(C(=O)N[C@@H]3CC[C@H]3OC)cnc12` [I-1146]: the “TYK2 MSD OCI-LY10 Dmax %” value is on record as “A (A (>90%))” and the DC50 is under 1 nM.

On to `CNc1cc(N2CCc3c(CN4CC[C@@H](N5CCC6(CCN(C(=O)c7cc(N8CCC(=O)NC8=O)c(Cl)cn7)CC6)CC5)C(F)(F)C4)cc(F)cc32)nn2c(C(=O)N[C@@H]3CC[C@H]3OC)cnc12` [I-1147], for which the “TYK2 MSD OCI-LY10 Dmax %” value is recorded as “A (A (>90%))” and the DC50 is under 1 nM.

Take `CNc1cc(N2CCc3c(CN4CC[C@H](N5CCC6(CCN(C(=O)c7cc(N8CCC(=O)NC8=O)c(Cl)cn7)CC6)CC5)C(F)(F)C4)cc(F)cc32)nn2c(C(=O)N[C@@H]3CC[C@H]3OC)cnc12` [I-1148]: the “TYK2 MSD OCI-LY10 Dmax %” value is reported as “B (B (90 to >75%))” and the DC50 was under 1 nM.

Consider `CNc1cc(N2CCc3c(-c4ncc(CN5CC6(CCN(C(=O)c7cc(N8CCC(=O)NC8=O)c(Cl)cn7)CC6(F)F)C5)cc4F)cc(F)cc32)nn2c(C(=O)N[C@@H]3CC[C@H]3OC)cnc12` [I-1149], for which the “TYK2 MSD OCI-LY10 Dmax %” value is “A (A (>90%))” and the DC50 was under 1 nM.

`CNc1cc(N2CCc3c(-c4ncc(CN5CC6(CCN(C(=O)c7cc(N8CCC(=O)NC8=O)c(Cl)c(C)n7)CC6(F)F)C5)cc4F)cc(F)cc32)nn2c(C(=O)N[C@@H]3C[C@@H]3F)cnc12` [I-1150]: the “TYK2 MSD OCI-LY10 Dmax %” value is listed as “A (A (>90%))” and the DC50 is under 1 nM.

Consider `CNc1cc(N2CCc3c(-c4ncc(CN5CC6(CCN(C(=O)c7cc(N8CCC(=O)NC8=O)c(Cl)c(C)n7)CC6(F)F)C5)cc4F)cc(F)cc32)nn2c(C(=O)N[C@@H]3CC[C@H]3OC)cnc12` [I-1151], for which the “TYK2 MSD OCI-LY10 Dmax %” value is given as “A (A (>90%))” and the DC50 is under 1 nM.

In the case of `CNc1cc(N2CCc3c(-c4ncc(CN5CC6(CCN(C(=O)c7cc(N8CCC(=O)NC8=O)c(F)cn7)CC6(F)F)C5)cc4F)cc(F)cc32)nn2c(C(=O)N[C@@H]3C[C@@H]3F)cnc12` [I-1153], the “TYK2 MSD OCI-LY10 Dmax %” value is given as “B (B (90 to >75%))” and the DC50 was under 10 nM.

In the case of `CNc1cc(N2CCc3c(-c4ncc(CN5CC6(CCN(C(=O)c7ccc(Cl)c(N8CCC(=O)NC8=O)c7)CC6(F)F)C5)cc4F)cccc32)nn2c(C(=O)N[C@@H]3CC[C@H]3OC)cnc12` [I-1154], the “TYK2 MSD OCI-LY10 Dmax %” value was “A (A (>90%))” and the DC50 is under 1 nM.

In the case of `CNc1cc(N2CCc3c(-c4ncc(CN5CC6(CCN(C(=O)c7cc(N8CCC(=O)NC8=O)c(F)cn7)CC6(F)F)C5)cc4F)cc(F)cc32)nn2c(C(=O)N[C@@H]3CC[C@H]3OC)cnc12` [I-1155], the “TYK2 MSD OCI-LY10 Dmax %” value is given as “B (B (90 to >75%))” and the DC50 was under 1 nM.

Turning to `CNc1cc(N2CCc3c(CN4CCC(N5CCC6(CC5)CN(C(=O)c5cc(N7CCC(=O)NC7=O)c(Cl)c(C)n5)C6)C(F)(F)C4)cccc32)nn2c(C(=O)N[C@@H]3CC[C@H]3OC)cnc12` (stereo partly shown) [I-1156], the “TYK2 MSD OCI-LY10 Dmax %” value is “B (B (90 to >75%))” and the DC50 was under 1 nM.

With `CNc1cc(N2CCc3c(CN4CCC(N5CCC6(CCN(C(=O)c7cc(N8CCC(=O)NC8=O)c(Cl)c(C)n7)CC6)CC5)C(F)(F)C4)cccc32)nn2c(C(=O)N[C@@H]3CC[C@H]3OC)cnc12` (stereo partly shown) [I-1157], the “TYK2 MSD OCI-LY10 Dmax %” value is reported as “A (A (>90%))” and the DC50 was under 1 nM.

In the case of `CNc1cc(N2CCc3c(CN4CCC(N5CCC6(CC5)CN(C(=O)c5cc(N7CCC(=O)NC7=O)c(Cl)cn5)C6)C(F)(F)C4)cccc32)nn2c(C(=O)N[C@@H]3CC[C@H]3OC)cnc12` (stereo partly shown) [I-1158], the “TYK2 MSD OCI-LY10 Dmax %” value is on record as “A (A (>90%))” and the DC50 is under 1 nM.

In the case of `CNc1cc(N2CCc3c(CN4CCC(N5CCC6(CCN(C(=O)c7cc(N8CCC(=O)NC8=O)c(Cl)c(C)n7)CC6)CC5)C(F)(F)C4)cc(F)cc32)nn2c(C(=O)N[C@@H]3CC[C@H]3OC)cnc12` (stereo partly shown) [I-1159], the “TYK2 MSD OCI-LY10 Dmax %” value was “A (A (>90%))” and the DC50 was under 1 nM.

As to `CNc1cc(N2CCc3c(-c4ccc(CN5CCN(C6CCN(C(=O)c7cc(C)c(Cl)c(N8CCC(=O)NC8=O)c7)CC6(F)F)CC5)cn4)cccc32)nn2c(C(=O)N[C@@H]3CC[C@H]3OC)cnc12` (stereo partly shown) [I-1161], the “TYK2 MSD OCI-LY10 Dmax %” value is reported as “B (B (90 to >75%))” and the DC50 is under 1 nM.

For the origin of these results see patent publication US20260125400A1, “TYK2 DEGRADERS AND USES THEREOF” (Kymera Therapeutics, Inc., priority 2023, published 2026).
